Structures can show the parent of a compound that is named as a salt.
Each compound was assayed against T1, H2-receptor (Cavia porcellus, UniProt P47747) (assay: Test B: H2-receptor antagonism in isolated guinea-pig atrium). Settings: 0.5 h, dose 1.0 × 10^-6 g/ml, inhibition of histamine-induced increase in beating rate, 30 minutes after dosing.
T1 construct: from tissue; host or cells: guinea-pig atrium (isolated atrial strip)
Format: cell-based
Method: The atrial strip isolated from guinea-pig was suspended under an initial tension 0.3 to 0.6 g in an organ bath containing Tyrode solution at 30° C., aerated 95%O2 -5%CO2 gas. The beating rate and amplitude of contraction of the atrium were recorded by means of a transducer and a polygraph. Histamine ([…]) was added to the bathing fluid and the increase in beating rate after dosing was measured. Addition of test compound was made 30 minutes after washing out histamine. Inhibitory effect of test compound was calculated by comparing histamine-induced increases in beating rate before and 30 minutes after dosing with test compound.

T1 sequence (P47747 whole entry): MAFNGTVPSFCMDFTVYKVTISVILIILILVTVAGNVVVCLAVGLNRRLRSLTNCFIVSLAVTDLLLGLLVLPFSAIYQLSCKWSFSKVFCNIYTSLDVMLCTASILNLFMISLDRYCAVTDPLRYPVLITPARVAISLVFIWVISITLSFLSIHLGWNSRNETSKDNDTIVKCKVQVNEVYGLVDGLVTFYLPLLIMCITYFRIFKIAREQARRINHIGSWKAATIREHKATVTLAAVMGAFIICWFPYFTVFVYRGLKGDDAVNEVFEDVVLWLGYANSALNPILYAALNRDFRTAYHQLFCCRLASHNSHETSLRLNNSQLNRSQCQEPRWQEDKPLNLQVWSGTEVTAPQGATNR

| Structure (SMILES) | inhibition at 1 µg/mL [%] |
| --- | --- |
| CNc1nc2ccc(CCc3nc4cc(OC)ccn4c3C)cc2o1 [Test Compound (k), 6-[2-(7-Methoxy-3-methylimidazo[1,2-a]pyridin-2-yl)ethyl]-2-methylaminobenzoxazole dihydrochloride] | 92.5 |

Same assay, conditions: 0.5 h, dose 3.2 × 10^-6 g/ml, inhibition of histamine-induced increase in beating rate, 30 minutes after dosing

| Structure (SMILES) | inhibition at 3.2 µg/mL [%] |
| --- | --- |
| Cc1ccn2c(C)c(CCc3ccc4nc(N)oc4c3)nc2c1 [Test Compound (i), 6-[2-(3,7-Dimethylimidazo[1,2-a]pyridin-2-yl)ethyl]-2-aminobenzoxazole] | 93.1 |
| CCNc1nc2ccc(CCc3nc4cc(C)ccn4c3C)cc2o1 [Test Compound (j), 6-[2-(3,7-Dimethylimidazo[1,2-a]pyridin-2-yl)ethyl]-2-ethylaminobenzoxazole] | 98 |
| COc1ccn2c(C)c(CCc3ccc4nc(N)oc4c3)nc2c1 [Test Compound (h), 6-[2-(7-Methoxy-3-methylimidazo[1,2-a]pyridin-2-yl)ethyl]-2-aminobenzoxazole] | 100 |

These compounds were tested on stress ulcer (assay: Test A: Inhibition of stress ulcer). Settings: rat, oral, given just before immobilization, ulcer area after 7 hours vs control.
Format: in vivo, male Sprague-Dawley rats
Method: Five male Sprague-Dawley rats, aged 7 weeks and weighing about 200 g were used per group for the study on stress ulcer after the fast for 24 hours. Each animal was immobilized in a restrain cage and immersed to a level of the xiphoid in a water bath kept 22° C. Each of the test compound suspended in 0.1% methylcellulose solution was administered orally (5 ml/kg) just before the immobilization. Seven hours later, the animals were sacrificed and their stomachs were removed. The stomach was then fixed with 2% formalin. The area of ulcers was measured for each animal, and percentage of inhibition was calculated by comparing the mean area of ulcers (mm^2) in the test animals with that in the control animals.

| Structure (SMILES) | inhibition in vivo at 32 mg/kg [%] |
| --- | --- |
| CCNc1nc2ccc(CCc3nc4cc(OC)ccn4c3C)cc2o1 [Test Compound (l), 2-Ethylamino-6-[2-(7-methoxy-3-methylimidazo[1,2-a]pyridin-2-yl)ethyl]benzoxazole dihydrochloride] | 98.6 |
| Nc1nc2ccc(CCc3ccccn3)cc2s1 [Test Compound (c), 6-[2-(2-Pyridyl)ethyl]-2-aminobenzothiazole] | 88.5 |
| CCNc1nc2ccc(CCc3ccccn3)cc2s1 [Test Compound (b), 6-[2-(2-Pyridyl)ethyl]-2-ethylaminobenzothiazole] | 83.9 |
| COc1ccn2c(C)c(CCc3ccc4nc(N)oc4c3)nc2c1 [Test Compound (h), 6-[2-(7-Methoxy-3-methylimidazo[1,2-a]pyridin-2-yl)ethyl]-2-aminobenzoxazole] | 93.4 |
| Nc1nc2ccc(Cc3ccccn3)cc2s1 [Test Compound (e), 6-[(2-Pyridyl)methyl]-2-aminobenzothiazole] | 98.2 |
| Cc1ccn2c(C)c(CCc3ccc4nc(N)sc4c3)nc2c1 [Test Compound (g), 6-[2-(3,7-Dimethylimidazo[1,2-a]pyridin-2-yl)ethyl]-2-aminobenzothiazole d ihydrochloride] | 85.4 |
| CNc1nc2ccc(Cc3ccccn3)cc2s1 [Test Compound (a), 6-[(2-Pyridyl)methyl]-2-methylaminobenzothiazole] | 87.8 |
| CNc1nc2ccc(CCc3nc4cc(C)ccn4c3C)cc2o1 [Test Compound (f), 6-[2-(3,7-Dimethylimidazo[1,2-a]pyridin-2-yl)ethyl]-2-methylaminobenzoxazole] | 85.1 |
| CCNc1nc2ccc(CCc3cn4ccc(C)cc4n3)cc2o1 [Test Compound (d)] | 84.6 |

From patent publication US5047411A, “Benzazole compounds and pharmaceutical composition comprising the same” (Fujisawa Pharmaceutical Co., Ltd., priority 1988, dated 1991)
